The source of these data is ChEMBL document CHEMBL3881530, “Compounds and methods for inhibiting NHE-mediated antiport in the treatment of disorders associated with fluid retention or salt overload and gastrointestinal tract disorders” (2013).

In data set [1] the test system is Rattus norvegicus. The data set can be described thus: Increase in fecal water content in 1% psyllium diet fed Sprague-Dawley rat at 3 mg/kg administered via oral gavage measured after 16 hrs. The format is functional, organism-based.
Data set [2] deals with Rattus norvegicus. The experiment in a line: Reduction in fecal stool form in 1% psyllium diet fed Sprague-Dawley rat at 3 mg/kg administered via oral gavage measured after 16 hrs. The format is functional, organism-based.
In data set [3] the test system is Rattus norvegicus. The data set can be described thus: Increase in fecal sodium level in Sprague-Dawley rat at 3 mg/kg administered via oral gavage measured after 16 hrs by ion chromatographic analysis. The data set is classed as functional, organism-based.
Data set [4] concerns Rattus norvegicus. The data set can be described thus: Decrease in urinary sodium level in 1% psyllium diet fed Sprague-Dawley rat at 3 mg/kg administered via oral gavage measured after 16 hrs by ion chromatographic analysis. The data set is classed as functional, organism-based.
The subject of data set [5] is Rattus norvegicus. The data set can be described thus: Antinociceptive activity in Wistar rat assessed as inhibition of partial restraint stress-induced visceral hyperalgesia at 10 mg/kg, po administered 1 hr prior to 45 to 60 mm Hg colorectal distension pressure by measuring number of abdominal contractions monitoring every 5 mins during rectal distension. The format is functional, organism-based. To be noted: Abdominal cavity.

The nature of data set [6]: AUC in Sprague-Dawley rat at 1.5 mg/kg administered via oral gavage measured up to 4 hrs by LC/MS/MS analysis. The format is ADME, organism-based. Also on record: time < 4 hr, dose 1.5 mg/kg, route oral. To be noted: in vivo.
Data set [7] is described as follows: Cmax in Sprague-Dawley rat at 1.5 mg/kg administered via oral gavage measured up to 4 hrs by LC/MS/MS analysis. The data set is classed as ADME, organism-based. Set-up: dose 1.5 mg/kg, route oral. The following applies: in vivo.
Data set [8] in a line: AUC in Sprague-Dawley rat at 1.6 mg/kg administered via oral gavage measured up to 4 hrs by LC/MS/MS analysis. The data set is classed as ADME, organism-based. Set-up: time < 4 hr, dose 1.6 mg/kg, route oral. The following applies: in vivo.
Data set [9] can be described thus: Cmax in Sprague-Dawley rat at 1.6 mg/kg administered via oral gavage measured up to 4 hrs by LC/MS/MS analysis. The data set is classed as ADME, organism-based. Set-up: dose 1.6 mg/kg, route oral. To be noted: in vivo.
The target of data set [10] is Sodium/hydrogen exchanger 1 (Homo sapiens, UniProt P19634). The data set can be described thus: Inhibition of NHE-1 (unknown origin).
Sodium/hydrogen exchanger 1, sequence (P19634 whole entry): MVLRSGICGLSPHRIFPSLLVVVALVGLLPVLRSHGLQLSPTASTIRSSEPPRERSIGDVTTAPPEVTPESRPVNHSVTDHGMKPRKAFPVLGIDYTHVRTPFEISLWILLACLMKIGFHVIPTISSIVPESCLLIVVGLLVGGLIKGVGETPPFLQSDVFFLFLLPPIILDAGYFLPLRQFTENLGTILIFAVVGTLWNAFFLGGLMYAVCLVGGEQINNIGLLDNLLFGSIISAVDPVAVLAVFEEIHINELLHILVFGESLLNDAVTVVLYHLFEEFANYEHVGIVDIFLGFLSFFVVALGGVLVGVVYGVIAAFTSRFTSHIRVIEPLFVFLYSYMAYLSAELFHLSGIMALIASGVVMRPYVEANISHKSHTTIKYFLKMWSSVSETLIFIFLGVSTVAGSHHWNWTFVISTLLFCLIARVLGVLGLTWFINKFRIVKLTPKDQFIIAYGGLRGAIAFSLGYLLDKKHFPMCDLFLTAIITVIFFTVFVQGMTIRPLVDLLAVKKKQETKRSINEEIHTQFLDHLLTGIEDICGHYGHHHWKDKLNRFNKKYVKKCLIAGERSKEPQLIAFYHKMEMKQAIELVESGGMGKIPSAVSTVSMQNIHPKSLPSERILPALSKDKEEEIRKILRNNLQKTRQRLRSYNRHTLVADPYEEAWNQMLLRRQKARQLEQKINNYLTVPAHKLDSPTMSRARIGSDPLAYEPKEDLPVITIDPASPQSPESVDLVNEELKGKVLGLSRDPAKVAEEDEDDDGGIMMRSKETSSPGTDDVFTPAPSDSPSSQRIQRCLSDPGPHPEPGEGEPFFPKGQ
Data set [11] addresses T1, Sodium/hydrogen exchanger 3 (Homo sapiens, UniProt P48764).
T1 sequence (P48764 whole entry): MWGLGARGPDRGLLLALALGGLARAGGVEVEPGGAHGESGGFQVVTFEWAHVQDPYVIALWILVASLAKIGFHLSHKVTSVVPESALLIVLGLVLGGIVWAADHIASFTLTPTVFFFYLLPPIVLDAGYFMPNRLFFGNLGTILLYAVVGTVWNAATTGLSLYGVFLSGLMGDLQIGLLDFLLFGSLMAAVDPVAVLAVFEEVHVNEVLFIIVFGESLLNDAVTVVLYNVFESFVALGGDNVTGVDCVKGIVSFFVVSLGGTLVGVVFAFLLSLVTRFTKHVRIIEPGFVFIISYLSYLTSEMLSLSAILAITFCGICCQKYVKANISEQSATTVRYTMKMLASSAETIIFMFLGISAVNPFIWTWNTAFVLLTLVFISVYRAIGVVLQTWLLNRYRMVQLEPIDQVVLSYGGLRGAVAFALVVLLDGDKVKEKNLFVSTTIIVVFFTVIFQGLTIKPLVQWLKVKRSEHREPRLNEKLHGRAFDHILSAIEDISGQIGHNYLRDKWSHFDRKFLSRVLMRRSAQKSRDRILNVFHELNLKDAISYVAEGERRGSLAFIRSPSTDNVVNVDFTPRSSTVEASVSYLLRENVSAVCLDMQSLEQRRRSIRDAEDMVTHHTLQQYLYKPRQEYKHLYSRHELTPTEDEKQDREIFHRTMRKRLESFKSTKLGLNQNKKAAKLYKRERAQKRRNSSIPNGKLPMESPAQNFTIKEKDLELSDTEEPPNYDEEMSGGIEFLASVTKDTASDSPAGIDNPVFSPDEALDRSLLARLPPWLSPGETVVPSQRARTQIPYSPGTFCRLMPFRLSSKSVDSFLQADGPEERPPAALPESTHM
The data set can be described thus: Inhibition of NHE-3 (unknown origin).

In data set [12] the target is T2, Sodium/hydrogen exchanger 2 (Oryctolagus cuniculus, UniProt P50482).
T2 sequence (P50482 whole entry): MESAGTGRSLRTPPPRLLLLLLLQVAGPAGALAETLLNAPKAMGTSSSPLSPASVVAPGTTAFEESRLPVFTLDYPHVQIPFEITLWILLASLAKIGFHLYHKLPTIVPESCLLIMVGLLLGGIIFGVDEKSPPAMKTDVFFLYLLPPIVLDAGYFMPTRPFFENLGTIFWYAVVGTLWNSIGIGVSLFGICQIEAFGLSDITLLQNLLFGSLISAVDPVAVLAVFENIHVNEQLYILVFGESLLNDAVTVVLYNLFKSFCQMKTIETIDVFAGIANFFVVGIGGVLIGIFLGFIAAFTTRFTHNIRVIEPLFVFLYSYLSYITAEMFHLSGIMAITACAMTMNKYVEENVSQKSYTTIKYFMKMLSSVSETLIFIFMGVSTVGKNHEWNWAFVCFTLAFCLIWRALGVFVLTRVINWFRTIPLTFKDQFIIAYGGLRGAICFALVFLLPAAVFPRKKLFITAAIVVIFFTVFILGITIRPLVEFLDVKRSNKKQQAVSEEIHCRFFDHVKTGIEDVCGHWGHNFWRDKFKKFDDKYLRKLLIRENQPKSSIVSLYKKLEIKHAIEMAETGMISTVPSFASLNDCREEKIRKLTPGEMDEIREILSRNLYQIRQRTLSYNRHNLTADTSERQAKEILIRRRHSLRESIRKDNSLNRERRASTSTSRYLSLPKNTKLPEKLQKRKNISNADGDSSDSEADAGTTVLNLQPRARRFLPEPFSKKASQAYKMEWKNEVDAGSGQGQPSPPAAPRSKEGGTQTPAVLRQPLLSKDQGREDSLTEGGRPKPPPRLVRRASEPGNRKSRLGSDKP
The experiment in a line: Inhibition of rabbit NHE-2.

A short description of data set [13]: Cmax in Sprague-Dawley rat at 2.4 mg/kg administered via oral gavage measured up to 4 hrs by LC/MS/MS analysis. The format is ADME, organism-based. Set-up: dose 2.4 mg/kg, route oral. The following applies: in vivo.
A short description of data set [14]: AUC in Sprague-Dawley rat at 1.3 mg/kg administered via oral gavage measured up to 4 hrs by LC/MS/MS analysis. The data set is classed as ADME, organism-based. Also on record: dose 1.3 mg/kg, time < 4 hr, route oral. The following applies: in vivo.
Data set [15] is described as follows: Cmax in Sprague-Dawley rat at 1.3 mg/kg administered via oral gavage measured up to 4 hrs by LC/MS/MS analysis. The data set is classed as ADME, organism-based. Set-up: dose 1.3 mg/kg, route oral. To be noted: in vivo.
Data set [16] can be described thus: Apparent permeability of the compound from apical to basolateral side at pH 7.4 after 3 hrs by PAMPA. The data set is classed as ADME.
For data set [17], the system named is Rattus norvegicus. The data set can be described thus: Increase in fecal water content in Sprague-Dawley rat administered via oral gavage measured after 16 hrs. The data set is classed as functional.
Data set [18] deals with Sodium/hydrogen exchanger 3 (Rattus norvegicus, UniProt P26433). The data set can be described thus: Inhibition of rat NHE-3.
Sodium/hydrogen exchanger 3 (Rattus norvegicus, UniProt P26433), sequence (P26433 whole entry): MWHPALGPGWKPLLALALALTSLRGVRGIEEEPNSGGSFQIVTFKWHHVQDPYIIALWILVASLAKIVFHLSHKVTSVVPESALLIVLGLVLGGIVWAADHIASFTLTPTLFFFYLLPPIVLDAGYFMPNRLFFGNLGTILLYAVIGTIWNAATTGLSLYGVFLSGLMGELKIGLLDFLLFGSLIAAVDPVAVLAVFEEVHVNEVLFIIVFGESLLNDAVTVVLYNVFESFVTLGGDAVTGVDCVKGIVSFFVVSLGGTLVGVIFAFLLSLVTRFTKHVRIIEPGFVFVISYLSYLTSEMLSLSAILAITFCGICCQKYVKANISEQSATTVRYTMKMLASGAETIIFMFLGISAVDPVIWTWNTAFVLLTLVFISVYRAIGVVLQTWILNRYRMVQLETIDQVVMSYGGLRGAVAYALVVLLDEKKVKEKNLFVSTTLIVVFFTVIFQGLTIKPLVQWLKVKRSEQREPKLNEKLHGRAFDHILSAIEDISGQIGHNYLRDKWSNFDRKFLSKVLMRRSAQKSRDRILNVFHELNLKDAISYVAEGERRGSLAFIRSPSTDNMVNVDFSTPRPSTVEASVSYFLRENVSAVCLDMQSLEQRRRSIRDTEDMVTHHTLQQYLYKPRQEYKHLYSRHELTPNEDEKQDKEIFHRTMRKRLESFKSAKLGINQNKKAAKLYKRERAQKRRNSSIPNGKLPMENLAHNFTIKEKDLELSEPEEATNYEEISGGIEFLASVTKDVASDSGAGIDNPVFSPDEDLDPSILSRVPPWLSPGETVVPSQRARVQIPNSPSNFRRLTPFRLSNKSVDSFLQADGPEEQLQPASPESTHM
A short description of data set [19]: Cmax in Sprague-Dawley rat at 4.6 mg/kg administered via oral gavage measured up to 4 hrs by LC/MS/MS analysis. The data set is classed as ADME, organism-based. Set-up: dose 4.6 mg/kg, route oral. The following applies: in vivo.
Data set [20] can be described thus: AUC in Sprague-Dawley rat at 4.6 mg/kg administered via oral gavage measured up to 4 hrs by LC/MS/MS analysis. The format is ADME, organism-based. Also on record: time < 4 hr, dose 4.6 mg/kg, route oral. The following applies: in vivo.
Data set [21] is described as follows: AUC in Sprague-Dawley rat at 21 mg/kg administered via oral gavage measured up to 4 hrs by LC/MS/MS analysis. Set-up: dose 21 mg/kg, time < 4 hr, route oral. To be noted: in vivo. The data set is classed as ADME, organism-based.
Data set [22] is described as follows: Cmax in Sprague-Dawley rat at 21 mg/kg administered via oral gavage measured up to 4 hrs by LC/MS/MS analysis. The format is ADME, organism-based. Set-up: dose 21 mg/kg, route oral. The following applies: in vivo.
The nature of data set [23]: Cmax in Sprague-Dawley rat at 27 mg/kg administered via oral gavage measured up to 4 hrs by LC/MS/MS analysis. To be noted: in vivo. Also on record: dose 27 mg/kg, route oral. The format is ADME, organism-based.
The nature of data set [24]: AUC in Sprague-Dawley rat at 27 mg/kg administered via oral gavage measured up to 4 hrs by LC/MS/MS analysis. To be noted: in vivo. Set-up: time < 4 hr, dose 27 mg/kg, route oral. The data set is classed as ADME, organism-based.

Activity calls are given as the source filed them. The rule behind the calls is not given here.

Take `CN1Cc2c(Cl)cc(Cl)cc2C(c2cccc(S(=O)(=O)NCCOCCOCCOCCNC(=O)C(O)C(O)C(=O)NCCOCCOCCOCCNS(=O)(=O)c3cccc(C4CN(C)Cc5c(Cl)cc(Cl)cc54)c3)c2)C1` (single isomer, unassigned): the outcome in the data set with Rattus norvegicus [1], with Rattus norvegicus [2], in the data set with Rattus norvegicus [3] and in the data set with Rattus norvegicus [4] was Active. For the same molecule, the inhibition result with Rattus norvegicus [5] was “Active”.
Molecule `C/C(=C\c1cc(F)c(Oc2ccc(S(=O)(=O)NCCOCCOCCOCCNC(=O)[C@H](O)[C@@H](O)C(=O)NCCOCCOCCOCCNS(=O)(=O)c3ccc(Oc4c(F)cc(/C=C(\C)C(=O)N=C(N)N)cc4F)cc3)cc2)c(F)c1)C(=O)N=C(N)N` registered an AUC at 4 h in data set [6] of less than 4.4 ng·h/mL. Moreover, in data set [7], the Cmax was less than 2.7 ng/mL.
Take `CN1Cc2c(Cl)cc(Cl)cc2C(c2cccc(S(=O)(=O)NCCN(CCNS(=O)(=O)c3cccc(C4CN(C)Cc5c(Cl)cc(Cl)cc54)c3)CCNS(=O)(=O)c3cccc(C4CN(C)Cc5c(Cl)cc(Cl)cc54)c3)c2)C1` (centres undefined): the AUC at 4 h in data set [8] was found to be 159 ng·h/mL. Moreover, the Cmax in [9] was found to be 71 ng/mL.
Turning to `C/C(=C\c1cc(C)ccc1/C=C(\C)C(=O)NC(=N)N)C(=O)N=C(N)N`, the half-inhibitory concentration (IC50) in data set [10] was 3.6 µM; in data set [11], 0.02 µM; in [12], 80 µM.
With `N=C(N)N1CCN(c2cccc(-c3nc(N=C(N)N)nc4ccc(Cl)cc34)c2)CC1`, the peak concentration (Cmax) in data set [13] came out at 2 ng/mL.
As to `CN1Cc2c(Cl)cc(Cl)cc2C(c2cccc(NS(=O)(=O)NCCP(=O)(O)O)c2)C1` (centres undefined), the exposure (AUC) at 4 h in data set [14] was 56 ng·h/mL. In [15], this molecule registered a Cmax of 11 ng/mL.
For the molecule `NC(N)=Nc1nc(-c2cccc(N3CCN(CCCC(=O)O)CC3)c2)c2cc(Cl)ccc2n1.O=C(O)C(F)(F)F`, the Papp at 3 h in [16] was 0.4 ×10⁻⁶ cm/s.
For the molecule `CN1Cc2c(Cl)cc(Cl)cc2C(c2cccc(S(=O)(=O)NCCOCCOCCOCCNC(=O)C(O)C(O)C(=O)NCCOCCOCCOCCNS(=O)(=O)c3cccc(C4CN(C)Cc5c(Cl)cc(Cl)cc54)c3)c2)C1` (centres undefined), the Activity entry in the data set with Rattus norvegicus [17] is “Dose-dependent effect”.
Regarding `N=C(N)NC(=O)c1cnn(-c2cccc3ncccc23)c1C1CC1` [ZONIPORIDE], in data set [18], the IC50 is more than 500 µM.
In data set [19], `C/C(=C\c1cc(F)c(Oc2ccc(S(=O)(=O)NCc3ccc(CP(=O)(O)O)cc3)cc2)c(F)c1)C(=O)N=C(N)N` yielded a Cmax of 14 ng/mL. In data set [20], the AUC at 4 h is 9 ng·h/mL.
`CN1Cc2c(Cl)cc(Cl)cc2C(c2cccc(S(=O)(=O)NCCOCCOCCOCCNC(=O)Nc3ccc(NC(=O)NCCOCCOCCOCCNS(=O)(=O)c4cccc([C@@H]5CN(C)Cc6c(Cl)cc(Cl)cc65)c4)cc3)c2)C1` (mixture of isomers) registered an AUC at 4 h in data set [21] of less than 2 ng·h/mL. This molecule also had a Cmax in [22] of less than 2 ng/mL.
In [23], `CN1Cc2c(Cl)cc(Cl)cc2[C@H](c2ccc(S(=O)(=O)NCCOCCOCCOCCNC(=O)C(O)C(O)C(=O)NCCOCCOCCOCCNS(=O)(=O)c3ccc([C@@H]4CN(C)Cc5c(Cl)cc(Cl)cc54)cc3)cc2)C1` (single isomer, unassigned) had a Cmax of less than 3.5 ng/mL. This molecule also returned an AUC at 4 h in data set [24] of less than 5.3 ng·h/mL.
